The series can be described thus: method code SF, from PMID: 17665861. The note with it: pH 7.4.

What is called logD is lipophilicity at a set pH, counting ionised and neutral species. Low values mean lower lipophilicity, high ones higher lipophilicity. `O=C1Nc2ccccc2C12SC1C(=NNC1c1ccccc1)N2c1ccc(Cl)cc1` (stereo not drawn): the logD stood at 1.1.
With `O=C1Nc2ccccc2C12SC1C(=NNC1c1ccccc1O)N2c1ccc(Br)cc1` (stereo not drawn), the logD was 1.38.
The same measure for `COc1ccc(C2NN=C3C2SC2(C(=O)Nc4ccccc42)N3c2ccc(Br)cc2)cc1` (stereo not drawn): 1.4.
In the case of `O=C1Nc2ccccc2C12SC1C(=NNC1c1ccc([N+](=O)[O-])cc1)N2c1ccc(Cl)cc1` (stereo not drawn) it was 1.31.
In the case of `COc1ccc(C2NN=C3C2SC2(C(=O)Nc4ccccc42)N3c2ccccc2[N+](=O)[O-])cc1` (stereo not drawn) it was 1.35; in that of `COc1ccc(C2NN=C3C2SC2(C(=O)Nc4ccccc42)N3c2ccccc2OC)cc1` (stereo not drawn), 1.23.
Regarding `COc1ccccc1N1C2=NNC(c3ccccc3)C2SC12C(=O)Nc1ccccc12` (stereo not drawn), the logD was found to be 1.19.
The same measure for `O=C1Nc2ccccc2C12SC1C(=NNC1c1ccccc1Cl)N2c1cccc2ccccc12` (stereo not drawn): 1.21; for `COc1ccccc1N1C2=NNC(c3ccc(Cl)cc3)C2SC12C(=O)Nc1ccccc12` (stereo not drawn): 1.26; for `O=C1Nc2ccccc2C12SC1C(=NNC1c1ccccc1[N+](=O)[O-])N2c1cccc2ccccc12` (stereo not drawn): 1.17.
Take `COc1ccc(C2NN=C3C2SC2(C(=O)Nc4ccccc42)N3c2cccc3ccccc23)cc1` (stereo not drawn): the logD is 1.2.
In the case of `COc1ccccc1N1C2=NNC(c3ccccc3[N+](=O)[O-])C2SC12C(=O)Nc1ccccc12` (stereo not drawn) it was 1.11.
The same measure for `O=C1Nc2ccccc2C12SC1C(=NNC1c1ccccc1)N2c1ccccc1[N+](=O)[O-]` (stereo not drawn): 1.14.
In the case of `O=C1Nc2ccccc2C12SC1C(=NNC1c1ccc([N+](=O)[O-])cc1)N2c1ccc(Br)cc1` (stereo not drawn) it was 1.35.
Compound `COc1ccc(C2NN=C3C2SC2(C(=O)Nc4ccccc42)N3c2ccc(Cl)cc2)cc1` (stereo not drawn) came in with a logD of 1.41. This logD and that of the compound before are within 0.2 log units of each other.
In the case of `O=C1Nc2ccccc2C12SC1C(=NNC1c1ccccc1O)N2c1ccccc1` (stereo not drawn) it was 1.25; in that of `COc1ccccc1N1C2=NNC(c3ccccc3O)C2SC12C(=O)Nc1ccccc12` (stereo not drawn), 1.14; in that of `O=C1Nc2ccccc2C12SC1C(=NNC1c1ccc([N+](=O)[O-])cc1)N2c1ccccc1[N+](=O)[O-]` (stereo not drawn), 1.45.
In the case of `O=C1Nc2ccccc2C12SC1C(=NNC1c1ccccc1)N2c1ccc(Br)cc1` (stereo not drawn) it was 1.24; in that of `O=C1Nc2ccccc2C12SC1C(=NNC1c1ccccc1Cl)N2c1ccccc1` (stereo not drawn), 1.22.
`O=C1Nc2ccccc2C12SC1C(=NNC1c1ccccc1Cl)N2c1ccccc1[N+](=O)[O-]` (stereo not drawn) displayed a logD of 1.17.
In the case of `O=C1Nc2ccccc2C12SC1C(=NNC1c1ccccc1Cl)N2c1ccc(Cl)cc1` (stereo not drawn) it was 1.31.
In the case of `O=C1Nc2ccccc2C12SC1C(=NNC1c1ccccc1Cl)N2c1ccc(Br)cc1` (stereo not drawn) it was 1.45.

Source of the values: the SangsterLogP compilation.
